Measurements taken from patent US20230150944A1, “PESTICIDALLY ACTIVE HETEROCYCLIC DERIVATIVES WITH SULFOXIMINE CONTAINING SUBSTITUENTS” (SYNGENTA CROP PROTECTION AG, priority 2018, published 2023).

Tests used:
Type in all cases: in vivo
[1] = system: Bemisia tabaci (Cotton White Fly); experiment: Example B1: Activity on Bemisia tabaci, cotton leaf disc spray; conditions: foliar, 144 h, application rate of 200 ppm, adult white flies on cotton leaf discs, 6 days after incubation
Method: Example B1: Activity on Bemisia tabaci (Cotton White Fly)
Cotton leaf discs were placed on agar in 24-well microtiter plates and sprayed with aqueous test solutions prepared from 10′000 ppm DMSO stock solutions. After drying the leaf discs were infested with adult white flies. The samples were checked for mortality 6 days after incubation.

[2] = system: Myzus persicae (Green Peach Aphid); experiment: Example B4: Activity on Myzus persicae, sunflower leaf disc spray; conditions: foliar, 144 h, application rate of 200 ppm, mixed-age aphids on sprayed sunflower leaf discs, 6 days after infestation
Method: Example B4: Activity on Myzus persicae (Green Peach Aphid)
Sunflower leaf discs were placed onto agar in a 24-well microtiter plate and sprayed with aqueous test solutions prepared from 10′000 ppm DMSO stock solutions. After drying, the leaf discs were infested with an aphid population of mixed ages. The samples were assessed for mortality 6 days after infestation.

[3] = system: Tetranychus urticae (Two-Spotted Spider Mite); experiment: Example B10: Activity on Tetranychus urticae, bean leaf disc spray; conditions: foliar, 192 h
Method: Example B10: Activity on Tetranychus urticae (Two-Spotted Spider Mite)
Bean leaf discs on agar in 24-well microtiter plates were sprayed with aqueous test solutions prepared from 10′000 ppm DMSO stock solutions. After drying the leaf discs were infested with a mite population of mixed ages. The samples were assessed for mortality on mixed population (mobile stages) 8 days after infestation.

[4] = system: Myzus persicae (Green Peach Aphid); experiment: Example B5: Activity on Myzus persicae, pea seedling roots in test solution; conditions: 144 h, test rate of 24 ppm, roots of infested pea seedlings placed into test solution, 6 days
Method: Example B5: Activity on Myzus persicae (Green Peach Aphid)
Roots of pea seedlings infested with an aphid population of mixed ages were placed directly into aqueous test solutions prepared from 10′000 DMSO stock solutions. The samples were assessed for mortality 6 days after placing seedlings into test solutions.

[5] = system: Spodoptera littoralis (Egyptian Cotton Leaf Worm); experiment: Example B7: Activity on Spodoptera littoralis, cotton leaf disc spray; conditions: foliar, 72 h, application rate of 200 ppm, L1 larvae on cotton leaf discs, 3 days after infestation, read-out: control (mortality, anti-feeding effect or growth inhibition)
Method: Example B7: Activity on Spodoptera littoralis (Egyptian Cotton Leaf Worm)
Cotton leaf discs were placed onto agar in 24-well microtiter plates and sprayed with aqueous test solutions prepared from 10′000 ppm DMSO stock solutions. After drying the leaf discs were infested with five L1 larvae. The samples were assessed for mortality, anti-feeding effect, and growth inhibition in comparison to untreated samples 3 days after infestation. Control of Spodoptera littoralis by a test sample is given when at least one of the categories mortality, anti-feedant effect, and growth inhibition is higher than the untreated sample.

[6] = system: Plutella xylostella (Diamond Back Moth); experiment: Example B6: Activity on Plutella xylostella, artificial diet, L2 larvae; conditions: 120 h, application rate of 200 ppm, 5 days after infestation, read-out: effect in at least one of the two categories (mortality or growth inhibition)
Method: Example B6: Activity on Plutella xylostella (Diamond Back Moth)
(§1) 24-well microtiter plates with artificial diet were treated with aqueous test solutions prepared from 10′000 ppm DMSO stock solutions by pipetting. After drying, the plates were infested with L2 larvae (10 to 15 per well). The samples were assessed for mortality and growth inhibition in comparison to untreated samples 5 days after infestation.

[7] = system: Euschistus heros (Neotropical Brown Stink Bug); experiment: Example B3: Activity on Euschistus heros, soybean leaf spray; conditions: 120 h, application rate of 200 ppm, N2 nymphs on soybean leaves, 5 days after infestation, read-out: effect in at least one of the two categories (mortality or growth inhibition)
Method: Example B3: Activity on Euschistus heros (Neotropical Brown Stink Bug)
Soybean leaves on agar in 24-well microtiter plates were sprayed with aqueous test solutions prepared from 10′000 ppm DMSO stock solutions. After drying the leaves were infested with N2 nymphs. The samples were assessed for mortality and growth inhibition in comparison to untreated samples 5 days after infestation.

[8] = system: Diabrotica balteata (Corn Root Worm); experiment: Example B2: Activity on Diabrotica balteata, maize sprout spray; conditions: 96 h, application rate of 200 ppm, L2 larvae on maize sprouts, 4 days after infestation, read-out: effect in at least one of the two categories (mortality or growth inhibition)
Method: Example B2: Activity on Diabrotica balteata (Corn Root Worm)
as §1, with “Maize sprouts placed onto an agar layer in 24-well” for “24-well”, “plates” for “plates with artificial diet”, “spraying.” for “pipetting.”, “(6” for “(10”, “10” for “15”, “4” for “5”

[9] = system: Plutella xylostella (Diamond Back Moth); experiment: Example B11: Activity on Plutella xylostella, artificial diet, eggs; conditions: 192 h, application rate of 200 ppm, 8 days after infestation, read-out: effect in at least one of the two categories (mortality or growth inhibition)
Method: Example B11: Activity on Plutella xylostella (Diamond Back Moth)
as §1, with “drying, Plutella eggs were pipetted through a plastic stencil onto a gel blotting paper and” for “drying,”, “plate was closed” for “plates were infested”, “it.” for “L2 larvae (10 to 15 per well).”, “8” for “5”

CCS(=N)(=O)c1cc(C2CC2)cnc1-c1nc2cc(S(=O)(=O)C(F)(F)F)ncc2n1C (stereo not shown) [Example P3, [5-cyclopropyl-2-[3-methyl-6-(trifluoromethylsulfonyl)imidazo[4,5-c]pyridin-2-yl]-3-pyridyl]-ethyl-imino-oxo-λ^6-sulfane]
≥ 80%: mortality at 200 ppm [1] | mortality at 200 ppm [2] | mortality at 200 ppm [3] | mortality at 24 ppm [4] | percent control (mortality, anti-feedant effect or growth inhibition) at 200 ppm [5] | percent effect (mortality or growth inhibition) at 200 ppm [6] | percent effect (mortality or growth inhibition) at 200 ppm [7] | percent effect (mortality or growth inhibition) at 200 ppm [8]

CCS(=N)(=O)c1cc(C2CC2)cnc1-c1cn2ncc(C(F)(F)F)cc2n1 (stereo not shown) [Example P16, [5-cyclopropyl-2-[7-(trifluoromethyl)imidazo[1,2-b]pyridazin-2-yl]-3-pyridyl]-ethyl-imino-oxo-λ^6-sulfane]
≥ 80%: mortality at 200 ppm [2] | mortality at 24 ppm [4] | percent effect (mortality or growth inhibition) at 200 ppm [9] | percent control (mortality, anti-feedant effect or growth inhibition) at 200 ppm [5] | percent effect (mortality or growth inhibition) at 200 ppm [8]
